The values below are quoted from earlier work in US9583325B2, “System and method of delicate membrane condensed phase membrane introduction mass spectrometry (CP-MIMS)” (priority 2013, dated 2017).

The conditions of series [1]: for Log Kow: Table 1, SRC Physical Properties Database.
For series [2] the following is noted: SRC Physical Properties Database.

Take `CC(C)C1=CC2=CC[C@@H]3[C@](C)(CCC[C@@]3(C)C(=O)O)[C@H]2CC1` [Abietic Acid, Abietic acid]: in series [1], the “Log Kow” value was 6.46. For the same molecule, the Vapour pressure in series [2] was 4.3 × 10^−5 Pa.

With `Cc1ccc(C)c(OCCCC(C)(C)C(=O)O)c1` [Gemfibrozil, 5-(2,5-dimethylphenoxy)-2,2-dimethyl-pentanoic acid], in series [1], the “Log Kow” value is listed as 4.30. The Vapour pressure in series [2] was 8.1 × 10^−5 Pa.

With `Oc1cc(Cl)ccc1Oc1ccc(Cl)cc1Cl` [Triclosan, 5-chloro-2-(2,4-dichlorophenoxy)phenol], the “Log Kow” value in series [1] is reported as 4.76. In series [2], the Vapour pressure was 8.6 × 10^−5 Pa.

Turning to nonylphenol, the “Log Kow” value in series [1] is on record as 5.76. The “log Kow” value in series [1] (values given in text of Example 10) is given as 6.04. The Vapour pressure in series [2] is on record as 1.15 Pa.
